molecular target: T1, ACC (acetyl CoA carboxylase) purified from liver of male SD rat (Rattus norvegicus, UniProt P11497); assay: Measurement of ACC inhibition activity ([14C]-NaHCO3 incorporation); assay type: biochemical; settings: ACC inhibition activity rate at 1 μM; Table 2-III, Mode 3 acetylene/oxadiazole/thiazole compounds (numbers = x-III); read-out: ACC Inhibition (%)
T1 construct: applied to a monomeric avidin sepharose column, and washed with buffer B. The ACC was eluted with buffer B containing 2 mM d-biotin; from tissue; host or cells: liver of male SD rat
Procedure, shortened: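 Enzyme was avidin-purified from livers of rats fasted and then sucrose-fed. Compounds were preincubated with ACC for 30 min at 37° C in Tris-HCl pH 7.5 with MgCl2, citrate and DTT. [14C]-NaHCO3 solution with 8 mM ATP and 0.5 mM acetyl CoA was added for 10 min at 37° C. Acid-stable 14C gave % inhibition at 1 μM.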

SMILES | inhibition at 1 µM [%]
O=C(O)c1ccc(-c2csc(-c3ccc(C#Cc4cccc(C(F)(F)F)c4)cc3)n2)cc1 [compound 36] | 54
O=C(O)c1ccccc1-c1csc(-c2ccc(C#Cc3cccc(C(F)(F)F)c3)cc2)n1 [compound 35] | 50
CC(C)c1ccc(S(=O)(=O)NC(=O)C(Cc2ccccc2)NC(=O)Nc2ccc(-c3csc(-c4ccccc4)n3)cc2)cc1 (stereo not shown) [compound 130] | 88
O=C1c2ccccc2C(=O)N1c1cccc(C#Cc2cccc(C(F)(F)F)c2)c1 [compound 18] | 60
CC(C)c1ccc(S(=O)(=O)NC(=O)c2ccc3c(c2)CN(c2cccc(-c4csc(-c5ccccc5)n4)c2)C3)cc1 [compound 118] | 60
O=[N+]([O-])c1ccccc1S(=O)(=O)Nc1ccc(-c2csc(-c3ccccc3)n2)cc1 [compound 77] | 64
O=S(=O)(Nc1ccc(-c2csc(-c3ccc(C(F)(F)F)cc3)n2)cc1)c1cccc(S(=O)(=O)Nc2ccc(-c3csc(-c4ccc(C(F)(F)F)cc4)n3)cc2)c1 [compound 55] | 73

same assay, conditions: ACC inhibition activity rate at 1 μM; Table 3-I, Mode 1 quinoline compounds (numbers = x-I); read-out: ACC Inhibition (%)

SMILES | inhibition at 1 µM [%]
CC(C)(C)c1ccc(C(=O)NS(=O)(=O)c2ccccc2NC(=O)c2ccc3nc(-c4cc(C(F)(F)F)cc(C(F)(F)F)c4)ccc3c2)cc1 [compound 83] | 98
CCCCCC(=O)NS(=O)(=O)c1ccccc1NC(=O)c1ccc2nc(-c3cc(C(F)(F)F)cc(C(F)(F)F)c3)c(CCCl)cc2c1 [compound 103] | 50

Second part, the molecule after the results:

inhibition at 1 µM [%] | SMILES
61 | CCCCCC(=O)NS(=O)(=O)c1ccccc1NC(=O)c1ccc2nc(-c3cccc(SC(F)(F)F)c3)ccc2c1 [compound 109]
45 | CCCCS(=O)(=O)NC(=O)CC1(NC(=O)c2ccc3nc(-c4cc(C(F)(F)F)cc(C(F)(F)F)c4)ccc3c2)CCCCC1 [compound 54]
72 | CCCCCC(=O)NS(=O)(=O)c1ccccc1NC(=O)c1ccc2nc(-c3cc(C(F)(F)F)cc(C(F)(F)F)c3)ccc2c1 [compound 7]

same assay, conditions: ACC inhibition activity rate at 1 μM; Table 4-A, further compounds of Modes 2 and 3; read-out: ACC Inhibition (%)

SMILES | inhibition at 1 µM [%]
O=C(O)c1ccc(S(=O)(=O)NC(=O)c2cccc(-c3nc(-c4ccc(-c5csc(-c6ccccc6)n5)cc4)no3)c2)cc1 [Compound 144-III] | 97
O=C(/C=C/c1ccccc1)NS(=O)(=O)c1cccc(-c2nc(-c3ccc(-c4csc(-c5ccccc5)n4)cc3)no2)c1 [Compound 142-III] | 100
CC(C)CCn1c(-c2ccccc2)nc2cc(-c3nc(-c4cccc(C(=O)NS(=O)(=O)c5ccccc5)c4)no3)ccc21 [Compound 9-II] | 72
Cc1ccccc1S(=O)(=O)NC(=O)c1cccc(-c2nc(-c3ccc(-c4csc(-c5ccccc5)n4)cc3)no2)c1 [Compound 141-III] | 100
O=C(NS(=O)(=O)c1cccc(-c2nc(-c3ccc(-c4csc(-c5ccccc5)n4)cc3)no2)c1)c1cccnc1 [Compound 145-III] | 84

same assay, conditions: ACC inhibition activity rate at 1 μM; Table 4-IV, Mode 4 benzenediamine compounds (numbers = x-IV); read-out: ACC Inhibition (%)

SMILES | inhibition at 1 µM [%]
CCCCCC(=O)NS(=O)(=O)c1ccccc1NC(=O)c1ccc(Nc2ccccc2)c(NC(=O)c2cc(C(F)(F)F)cc(C(F)(F)F)c2)c1 [compound 26] | 78
CCCCCC(=O)NS(=O)(=O)c1ccccc1NC(=O)c1ccc(Nc2ccc(C(F)(F)F)cc2)c(NC(=O)c2cccc(C(F)(F)F)c2)c1 [compound 27] | 91
CCCCCC(=O)NS(=O)(=O)c1ccccc1NC(=O)c1ccc(Nc2ccc(C(F)(F)F)cc2)c(NC(=O)OCc2ccccc2)c1 [compound 35] | 91

Continued, values first:

inhibition at 1 µM [%] | SMILES
63 | CC(C)CCN(C)c1ccc(C(=O)NC(CC(=O)NS(=O)(=O)c2cn(C)cn2)C2CCCCC2)cc1N(C)Cc1ccccc1 (stereo not shown) [Compound 148-IV]
86 | CC(C)CCN(C)c1ccc(-c2noc(-c3cccc(C(=O)NS(=O)(=O)c4ccccc4)c3)n2)cc1[N+](=O)[O-] [compound 37]
59 | CC(C)CCN(C)c1ccc(C(=O)NC(CC(=O)NS(=O)(=O)c2ccccc2)C2CCCCC2)cc1NC1CCC1 (stereo not shown) [compound 85]
69 | CN(c1ccc(C(=O)NC(CC(=O)NS(=O)(=O)c2ccccc2)C2CCCCC2)cc1NCCc1ccccc1)C1CC1 (stereo not shown) [Compound 157-IV]
52 | CC(C)CCN(C)c1ccc(C(=O)NC(CC(=O)NS(=O)(=O)c2ccccc2)C2CCCCC2)cc1NC(C)C (stereo not shown) [compound 84]
100 | CC(C)CCN(C)c1ccc(-c2noc(-c3cccc(C(=O)NS(=O)(=O)c4ccccc4)c3)n2)cc1NCc1ccc2ccccc2c1 [compound 102]
91 | Cc1ccccc1S(=O)(=O)NC(=O)CC(NC(=O)c1ccc(N(C)CCC(C)C)c(NCC2CCCC2)c1)C1CCCCC1 (stereo not shown) [compound 126]
92 | Cc1ccccc1S(=O)(=O)NC(=O)CC(NC(=O)c1ccc(N(C)CCC(C)C)c(NCC2CCCCC2)c1)C1CCCCC1 (stereo not shown) [compound 83]
100 | Cc1ccccc1S(=O)(=O)NC(=O)c1cccc(-c2nc(-c3ccc(N(C)CCC(C)C)c(N4COc5ccccc5C4)c3)no2)c1 [compound 128]
99 | COC(=O)c1cccc(S(=O)(=O)NC(=O)c2cccc(-c3nc(-c4ccc(N(C)CCC(C)C)c(NCc5ccc(OCCO)cc5)c4)no3)c2)c1 [Compound 133-IV]
59 | O=C(NS(=O)(=O)c1ccccc1)c1cccc(-c2noc(-c3ccc(NC4CC4)c([N+](=O)[O-])c3)n2)c1 [compound 52]
85 | CC(C)CCN(C)c1ccc(-c2noc(-c3cccc(C(=O)NS(=O)(=O)c4ccccc4)c3)n2)cc1NC(=O)C1CCCCC1 [compound 41]
98 | Cc1ccccc1S(=O)(=O)NC(=O)CC(NC(=O)c1ccc(N(C)CCC(C)C)c(NCCc2ccccc2)c1)C1CCCCC1 (stereo not shown) [compound 125]
100 | CC(C)CCN(C)c1ccc(-c2noc(-c3cccc(C(=O)NS(=O)(=O)c4cccc(C(=O)O)c4)c3)n2)cc1N(C)Cc1ccc(OCCO)cc1 [Compound 139-IV]
53 | CN(C)CCNc1ccc(C(=O)Nc2cccc(C(=O)NS(=O)(=O)c3ccccc3)c2)cc1[N+](=O)[O-] [compound 62]
94 | Cc1ccccc1S(=O)(=O)NC(=O)CC(NC(=O)c1ccc(N(C)CCC(C)C)c(N(C)CC2CCCCC2)c1)C1CCCCC1 (stereo not shown) [compound 119]
100 | CC(C)CCN(C)c1ccc(-c2noc(-c3cccc(C(=O)NS(=O)(=O)c4ccccc4)c3)n2)cc1NC(C)c1ccccc1 (stereo not shown) [compound 106]

Reference: patent US7402696B2, “Benzene compounds” (Ajinomoto Co., Inc., priority 2004, dated 2008)
